This passage reports IC50 results from patent US9493501B2 (MEMORIAL SLOAN-KETTERING CANCER CENTER, priority 2011, dated 2016).

As a reminder, the IC50 is the midpoint of a concentration-inhibition curve.

Molecules are shown by their SMILES.

This experiment addresses T1, SETD2 (1347-1711) (Homo sapiens, UniProt Q9BYW2).
T1 sequence (Q9BYW2 1347-1711): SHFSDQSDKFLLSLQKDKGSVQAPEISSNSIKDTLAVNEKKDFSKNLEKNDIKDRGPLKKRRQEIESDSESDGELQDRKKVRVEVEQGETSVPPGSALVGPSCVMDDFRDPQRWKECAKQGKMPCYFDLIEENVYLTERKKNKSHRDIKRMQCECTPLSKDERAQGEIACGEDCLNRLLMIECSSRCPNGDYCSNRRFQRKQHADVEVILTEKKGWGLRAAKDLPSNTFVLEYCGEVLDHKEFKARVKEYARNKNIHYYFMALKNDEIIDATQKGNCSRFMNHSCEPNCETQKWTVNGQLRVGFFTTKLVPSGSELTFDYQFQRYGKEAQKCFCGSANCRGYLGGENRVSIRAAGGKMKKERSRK
The experiment is described as follows: Filter-paper methylation assay, SETD2. In kind it is biochemical.

`Nc1ncnc2c1ncn2C1OC(CC(CCC(N)C(=O)O)NCc2ccccc2)C(O)C1O` (stereo not shown) [Compound 110] came in with a half-inhibitory concentration (IC50) of 500 nM.
